This note sets out measurements from ChEMBL document CHEMBL1158407, “Synthesis of conjugated spermine derivatives with 7-nitrobenzoxadiazole (NBD), rhodamine and bodipy as new fluorescent probes for the polyamine transport system” (2009).

The nature of test [1]: Cellular uptake in human NAMALWA cells assessed as fluorescence intensity at 1 uM after 2 hrs by FACS analysis relative to control. It is filed as functional, cell-based. The settings on record: NAMALVA.
A short description of test [2]: Cellular uptake in F14512 co-cultured human NAMALWA cells assessed as decrease in fluorescence at 0.1 uM after 2 hrs by FACS analysis relative to control. It is filed as functional, cell-based. On the set-up: scale not given: the % may be the effect or the level left. The settings on record: NAMALVA. On the technique in general: A flow cytometer gives signals particle by particle.

A further test relates to CHO-MG. As to the kind of experiment: Differential fluorescence intensity index, ratio of cellular uptake in Chinese hamster CHO cells expressing PTS to cellular uptake in PTS deficient […] CHO-MG cells at 1 uM after 2 hrs by microscopy and FACS analysis. It is filed as functional, Cricetulus griseus.

Active and inactive are the calls of the source. The rule behind the calls is not given here. A value given as a limit tells only on which side of the number the result lay.

As for `NCCCNCCCCN(CCCN)C(=S)Nc1ccc(-c2c3ccc(=O)cc-3oc3cc(O)ccc23)c(C(=O)O)c1`, the Flu intensity in test [1] was 8.1. Also, in test [2], the outcome was inactive.

As for `CN(C)S(=O)(=O)c1ccc(NCCCNCCCCNCCCN)c2nonc12`, the Flu intensity in test [1] stood at 0. In addition, in test [2], the outcome was inactive.

For `CCC1=C(C)/C(=C(\c2ccc([N+](=O)[O-])cc2)c2c(C)c(CC)c(C)n2B(F)F)N=C1C`, the Flu intensity in test [1] was determined as 1390. In addition, the Activity in test [2] worked out at 50%.

Take `NCCCNCCCCNCCCNc1ccc([N+](=O)[O-])c2nonc12`: the “fold change (FC)” value with CHO-MG is recorded as 10. Moreover, the Flu intensity in test [1] came out at 65. Further, in test [2], the Activity was more than 70%.

For the compound `NCCCNCCCCNCCCNc1ccc(N)c2nonc12`, the Flu intensity in test [1] was determined as 0. Further, the outcome in test [2] was inactive.

Take `O=[N+]([O-])c1ccc(NCCCNCCCCNCCCNc2ccc([N+](=O)[O-])c3nonc23)c2nonc12`: in the test with CHO-MG (Cricetulus griseus), the “fold change (FC)” value is “inactive”. Further, the Flu intensity in test [1] was 627. The result in test [2] was inactive.

In the case of `NCCCNCCCCNCCCNCC(=O)N1CCN(c2ccc([N+](=O)[O-])c3nonc23)CC1`, the Flu intensity in test [1] amounted to 2.9. In test [2], the result was inactive.

For the compound `O=[N+]([O-])c1ccc(N2CCNCC2)c2nonc12`, the Flu intensity in test [1] was determined as 1.1. Moreover, in test [2], the outcome was inactive.

Turning to `CCC1=C(C)/C(=C(\c2ccc(NC(=O)CNCCCNCCCCNCCCN)cc2)c2c(C)c(CC)c(C)n2B(F)F)N=C1C`, the “fold change (FC)” value in the test on CHO-MG (Cricetulus griseus) was “inactive”. The Flu intensity in test [1] is 839. Further, the Activity in test [2] was 50%.

Turning to `NCCCCNc1ccc([N+](=O)[O-])c2nonc12`, the “fold change (FC)” value in the test on CHO-MG (Cricetulus griseus) is “inactive”.

For `CCC1=C(C)/C(=C(\c2ccc(N)cc2)c2c(C)c(CC)c(C)n2B(F)F)N=C1C`, the Flu intensity in test [1] stood at 3180. In test [2], the Activity stood at 50%.

As to `CNc1ccc([N+](=O)[O-])c2nonc12`, in the test on CHO-MG (Cricetulus griseus), the “fold change (FC)” value is “inactive”. For the same compound, the Flu intensity in test [1] is 0.5. Moreover, the outcome in test [2] was inactive.

Consider `NCCCNCCCCNCCCNC(=S)Nc1ccc(-c2c3ccc(=O)cc-3oc3cc(O)ccc23)c(C(=O)O)c1`, for which the Flu intensity in test [1] was determined as 7.9. Besides, the result in test [2] was inactive.

`CCN(CC)c1ccc2c(-c3ccc(NC(=S)NCCCNCCCCNCCCN)cc3C(=O)[O-])c3ccc(=[N+](CC)CC)cc-3oc2c1`: in test [2], the result was inactive.

Take `CN(C)S(=O)(=O)c1ccc(N2CCN(C(=O)CNCCCNCCCCNCCCN)CC2)c2nonc12`: the Flu intensity in test [1] was determined as 0. The outcome in test [2] was inactive.

As for `CCN(CC)c1ccc2c(-c3ccc(S(=O)(=O)[O-])cc3S(=O)(=O)NCCCNCCCCNCCCN)c3ccc(=[N+](CC)CC)cc-3oc2c1`, the Flu intensity in test [1] was 1.3. The result in test [2] was inactive.

On to `CCN(CC)c1ccc2c(-c3ccc(S(=O)(=O)NCCCNCCCCNCCCN)cc3S(=O)(=O)[O-])c3ccc(=[N+](CC)CC)cc-3oc2c1`, for which the Flu intensity in test [1] came out at 2.9. The result in test [2] was inactive.

Consider `CCN(CC)c1ccc2c(-c3cccc(NC(=S)NCCCNCCCCNCCCN)c3C(=O)[O-])c3ccc(=[N+](CC)CC)cc-3oc2c1`, for which the Flu intensity in test [1] is 15. For the same compound, the outcome in test [2] was inactive.

Turning to `CN(CCCNCCCCNCCCN)c1ccc([N+](=O)[O-])c2nonc12`, in the test with CHO-MG, the “fold change (FC)” value amounted to 10. Besides, the Flu intensity in test [1] is 56. In addition, in test [2], the Activity is more than 70%.
